# Experimental data published in patent publication US5756107A, “Formulations and methods for reducing skin irritation” (Cosmederm Technologies, priority 1994, dated 1998).
# Entries after “also recorded” stand apart in the source; their conditions may differ. Where a name gives a salt, the structure may show the parent alone.
# System: sodium channels
# Test: not given
# Settings: cell membranes; cited from earlier work
row,Structure (SMILES),block of sodium channels
1,"[Li+] [lithium (Li^+), lithium]",block sodium channels on cell membranes

# System: skin irritation
# Test: Inhibition of skin irritation by salts in Elizabeth Arden Visible Difference Refining Toner
# Assay type: in vivo
# Settings: topical solution in Elizabeth Arden Visible Difference Refining Toner, various amounts
# Protocol: Cation salts of the invention were formulated at various concentrations in various commercially available topical cosmetic products.
# Topical solution forms of potassium nitrate, potassium chloride, potassium citrate, lithium sulfate, lithium nitrate and lithium acetate were prepared by combining various amounts of the named salts with Elizabeth Arden Visible Difference Refining Toner (an alcohol-containing solution).
row,Structure (SMILES),inhibition of skin irritation (in words)
1,[Cl-].[K+] [Potassium chloride],effective to inhibit skin irritation
2,CC(=O)O [Lithium acetate],effective to inhibit skin irritation
3,O=[N+]([O-])[O-].[K+] [Potassium nitrate],effective to inhibit skin irritation
4,O=S(=O)([O-])[O-].[Li+].[Li+] [Lithium sulfate],effective to inhibit skin irritation
5,O=C([O-])CC(O)(CC(=O)[O-])C(=O)[O-].[K+].[K+].[K+] [potassium citrate],effective to inhibit skin irritation
6,O=[N+]([O-])[O-].[Li+] [Lithium nitrate],effective to inhibit skin irritation

# System: not given
# Test: not given
# Settings: intravenous; cited from earlier work
row,Structure (SMILES),anesthesia or analgesia
1,O=S(=O)([O-])[O-].[Mg+2] [magnesium sulfate],produces neither anesthesia nor even analgesia in humans

# Same assay, conditions: magnesium ion; intravenously-administered magnesium sulfate; cited from earlier work
row,Structure (SMILES),paralysis of skeletal muscles
1,[Mg+2] [magnesium],induces paralysis of skeletal muscles

# System: subject's skin (skin irritation caused by lactic acid)
# Test: Lactic acid skin irritation challenge, double-blind randomized vehicle-controlled clinical trial (cumulative sensory irritation)
# Assay type: in vivo, human
# Settings: 31 mM
# Protocol: The trials were conducted in a double blind, randomized, vehicle-controlled manner. Various formulations of the invention were tested in over 550 people.
# Controls were performed by applying a corresponding formulation without any added cation to a contralateral portion of the subject's skin.
# The following scaled scores were used for sensory assessment:
# Cumulative irritation data are set forth in the following tables, and are depicted in FIGS. 9 and 10.
row,Structure (SMILES),"Percent Inhibition (cumulative irritation, dose-response)"
1,O=[N+]([O-])[O-].[K+] [Potassium nitrate],-3%
2,O=S(=O)([O-])[O-].[Li+].[Li+] [Lithium sulfate],2%

# Same assay, conditions: 62 mM
row,Structure (SMILES),"Percent Inhibition (cumulative irritation, dose-response)"
1,O=S(=O)([O-])[O-].[Li+].[Li+] [Lithium sulfate],-7%

# Same assay, conditions: 125 mM
row,Structure (SMILES),"Percent Inhibition (cumulative irritation, dose-response)"
1,O=[N+]([O-])[O-].[K+] [Potassium nitrate],18%
2,O=S(=O)([O-])[O-].[Li+].[Li+] [Lithium sulfate],16%

# Same assay, conditions: 250 mM
row,Structure (SMILES),"Percent Inhibition (cumulative irritation, dose-response)"
1,O=[N+]([O-])[O-].[K+] [Potassium nitrate],29%
2,O=S(=O)([O-])[O-].[Li+].[Li+] [Lithium sulfate],27%

# Same assay, conditions: 500 mM
row,Structure (SMILES),"Percent Inhibition (cumulative irritation, dose-response)"
1,O=[N+]([O-])[O-].[K+] [Potassium nitrate],60%
2,O=S(=O)([O-])[O-].[Li+].[Li+] [Lithium sulfate],30%

# Same assay, conditions: cation salts at 250 mM; average over clinical tests of over 550 subjects; 7.5% lactic acid challenge
row,Structure (SMILES),Percent Inhibition (average inhibition of cumulative irritation)
1,[Cl-].[K+] [Potassium chloride],40%
2,CC(=O)O [Lithium acetate],70%
3,O=[N+]([O-])[O-].[K+] [Potassium nitrate],30%
4,O=S(=O)([O-])[O-].[Li+].[Li+] [Lithium sulfate],35%
5,[Cl-].[Li+] [Lithium chloride],0%
6,O=C([O-])[C@H](O)[C@@H](O)[C@H](O)[C@H](O)CO.[K+] [Potassium gluconate],25%
7,O=S(=O)([O-])[O-].[K+].[K+] [Potassium sulfate],15%
8,O=[N+]([O-])[O-].[Li+] [Lithium nitrate],20%

# Same assay, conditions: clinical trials, topical
row,Structure (SMILES),anti-irritant activity (in words)
1,[Cl-].[K+] [Potassium chloride],overall efficacy of the subject formulations is evident; also recorded: particularly active as anti-irritants
2,CC(=O)O [Lithium acetate],particularly active as anti-irritants
3,"O=C(O)O [Lithium carbonate, lithium carbonate]",particularly active as anti-irritants
4,O=[N+]([O-])[O-].[K+] [Potassium nitrate],particularly active as anti-irritants
5,"O=C(O)C(=O)O [Potassium oxalate, potassium oxalate]",particularly active as anti-irritants
6,O=S(=O)([O-])[O-].[Li+].[Li+] [Lithium sulfate],overall efficacy of the subject formulations is evident; also recorded: particularly active as anti-irritants
7,O=C([O-])[C@H](O)[C@@H](O)[C@H](O)[C@H](O)CO.[K+] [Potassium gluconate],particularly active as anti-irritants
8,"[Li+] [lithium (Li^+), lithium]","effective, when applied topically to the skin in appropriate concentrations and vehicles, to suppress the relatively severe stinging, burning, tingling, itching and/or erythema"
9,O=[N+]([O-])[O-].[Li+] [Lithium nitrate],particularly active as anti-irritants
10,"[K+] [potassium (K^+), potassium]","effective, when applied topically to the skin in appropriate concentrations and vehicles, to suppress the relatively severe stinging, burning, tingling, itching and/or erythema"

# Same assay, conditions: preliminary studies; low concentration; vehicle includes glycerol
row,Structure (SMILES),"anti-irritant efficacy, effect of glycerol in the vehicle"
1,"[Li+] [lithium (Li^+), lithium]",increased if the vehicle includes glycerol

# Same assay, conditions: representative subject panels; cation concentrations of 250 mM; vehicle 10% EtOH
row,Structure (SMILES),Percent Inhibition
1,[Cl-].[K+] [Potassium chloride],38%
2,CC(=O)O [Lithium acetate],67%
3,"O=C(O)O [Lithium carbonate, lithium carbonate]",69%
4,O=[N+]([O-])[O-].[K+] [Potassium nitrate],29%
5,"O=C(O)C(=O)O [Potassium oxalate, potassium oxalate]",30%
6,O=S(=O)([O-])[O-].[Li+].[Li+] [Lithium sulfate],39%
7,[Cl-].[Li+] [Lithium chloride],6%
8,O=C([O-])[C@H](O)[C@@H](O)[C@H](O)[C@H](O)CO.[K+] [Potassium gluconate],25%
9,O=S(=O)([O-])[O-].[K+].[K+] [Potassium sulfate],27%
10,O=[N+]([O-])[O-].[Li+] [Lithium nitrate],16%

# System: exposed tooth nerves
# Test: not given
# Settings: cited from earlier work
row,Structure (SMILES),nerve electrical responses
1,[Ca+2] [calcium],may suppress nerve electrical responses
2,[Mg+2] [magnesium],may suppress nerve electrical responses
3,"[K+] [potassium (K^+), potassium]",evokes a transient electrical response followed by inhibition of excitability

# System: not given
# Test: not given
# Settings: in vivo, po; cited from earlier work
row,Structure (SMILES),paralysis or depressed neural activity
1,[Mg+2] [magnesium],does not result in paralysis or depressed neural activity in healthy individuals

# System: exposed tooth pulp
# Test: not given
# Settings: exposed tooth pulp vs dentin; cited from earlier work
row,Structure (SMILES),pain on application to tooth pulp or dentin
1,"[K+] [potassium (K^+), potassium]",pain is induced when potassium ion is applied to exposed tooth pulp but not when applied to the dentin

# System: brains of test animals
# Test: not given
# Settings: applied directly to the brains of test animals; cited from earlier work
row,Structure (SMILES),neural or synaptic activity
1,[Mg+2] [magnesium],"depressed neural or synaptic activity, and even a sleep-like state"

# System: tooth sensitivity
# Test: not given
# Settings: dentifrice, two to six weeks of continuous use; cited from earlier work
row,Structure (SMILES),tooth sensitivity
1,O=[N+]([O-])[O-].[K+] [Potassium nitrate],reduce tooth sensitivity
2,"[Cl-].[Cl-].[Sr+2] [strontium chloride, reference compound]",reduce tooth sensitivity
